According to patent US20210268029A1, “METHODS FOR TREATING CANCER WITH MANUFACTURED T CELLS” (RAPA THERAPEUTICS, LLC, priority 2018, published 2021):

Legend:
Format in all cases: cell-based
T cells = test: FoxP3 and TBET intra-cellular expression in T cells cultured ex vivo, day 6 (FIGS. 1A-1B)
Experimental: T cells were cultured ex vivo, as indicated, using various ratios of anti-CD3, anti-CD28 beads to T cells (1:1 or 1:12); the mTOR inhibitor temsirolimus (1 μM); without or with the anti-IL-2 receptor monoclonal antibody daclizumab (5 or 50 μg/ml); and either Th1 polarization cytokines (IFN-alpha; 10,000 IU/ml) or control regulatory T cell polarization (IL-2 plus TGF-β). At day 6 of culture, the T cells were evaluated for intra-cellular expression of the regulatory T cell transcription factor FoxP3 and the Th1 transcription factor TBET. (FIGS. 1A-1B).

CD4^+ and CD8^+ T cells = test: Cytokine secretion potential of cultured T cells by Luminex, day 6 and day 13 (FIGS. 3A-3B)
Experimental: To evaluate this, we tested cytokine secretion potential of the manufactured T cells at the end of cell culture (day 6) and then again one week after ex vivo expansion after maximal co-stimulation (3/28 bead-to-T cell ratio, 3:1) and propagation in media devoid of any inhibitors. In FIGS. 3A-3B, CD4^+ and CD8^+ T cells were purified and cultured for 6-days either with or without a 16-hr interval of pre-incubation prior to co-stimulation (1:1 ratio of 3/28 beads-to-T cells). As indicated, temsirolimus was added at concentrations of either 1.0 or 0.1 μM; all cultures were supplemented with IFN-α (10,000 IU/ml) and daclizumab (50 μg/ml). On day 6 of culture, the resultant T cells were co-stimulated for 24 hr using a 3:1 ratio of 3/28 beads; the supernatant was tested for cytokine content by Luminex assay (results are described as pg per ml of cytokine secreted per million cells per 24 hr). […] N.A, abbreviation indicates not applicable (insufficient T cell yield to perform assay).

[1] = tested on: human CD4^+ and CD8^+ T cells; test: Western blot of p62, phospho-RAPTOR and BIM after 16-hr pre-incubation (FIGS. 11-13)
Experimental: For FIGS. 11-13, human CD4^+ and CD8^+ T cells were cultured using a 16-hr pre-incubation interval prior to the addition of 3/28 beads at the reduced ratio of 1:3 beads-to-T cells. As indicated in FIGS. 11-13, the various T cell cultures received different methods of mTOR inhibition (rapamycin at 1.0 μM; temsirolimus at 1.0 or 0.1 different conditions of exogenous IL-2 addition, and different conditions relative to addition of the anti-IL-2 receptor monoclonal antibody, daclizumab. After the 16-hr pre-incubation interval, cells were harvested from the T cell cultures, protein was isolated, and p62 (FIG. 11), phospho-RAPTOR (FIG. 12), or BIM (FIG. 13) and the housekeeper gene β-actin were quantified by western blot.

[2] = TREG-permissive culture: bead ratio 1:12, no IFN-α, exogenous IL-2 plus TGF-β
[3] = pre-incubation plus high-dose temsirolimus, compared with other conditions
[4] = temsirolimus 1.0 μM, after 24 hr maximal co-stimulation, with or without overnight pre-incubation

Row | Molecule | FoxP3 expression (T cells; [2]) | expression of TBET (T cells; combination of temsirolimus and anti-IL-2 receptor monoclonal antibody) | FoxP3 expression (T cells; exogenous IL-2 added in combination with IFN-α) | T cell expression of FoxP3 (T cells; temsirolimus 1.0 μM with IFN-α, relative to day 0 input T cells) | day 13 T cell IFN-γ secretion (CD4^+ and CD8^+ T cells; [3]) | day 13 T cell TNF-α secretion (CD4^+ and CD8^+ T cells; [3]) | day 6 T cell cytokine secretion potential (CD4^+ and CD8^+ T cells; temsirolimus 0.1 μM) | day 6 T cell IFN-γ secretion (CD4^+ and CD8^+ T cells; [4]) | day 6 T cell TNF-α secretion (CD4^+ and CD8^+ T cells; [4]) | phospho-RAPTOR ([1]; high-dose temsirolimus compared to low-dose temsirolimus or high-dose rapamycin) | autophagy marker p62 ([1]; pre-incubation, 1:3 beads, daclizumab, rapamycin 1 μM or temsirolimus 1.0 or 0.1) | TBET expression (T cells; 50 μg/ml daclizumab compared with 5 μg/ml) | FoxP3 expression (T cells; IL-2 receptor blockade added to temsirolimus and IFN-α, 50 μg/ml more effective than 5 μg/ml)
1 | CO[C@H]1C[C@@H]2CC[C@@H](C)[C@@](O)(O2)C(=O)C(=O)N2CCCC[C@H]2C(=O)O[C@H]([C@H](C)C[C@@H]2CC[C@@H](OC(=O)C(C)(CO)CO)[C@H](OC)C2)CC(=O)[C@H](C)/C=C(\C)[C@@H](O)[C@@H](OC)C(=O)[C@H](C)C[C@H](C)/C=C/C=C/C=C/1C [temsirolimus] | not effective | increased expression | not effective | reduced | highest | highest | only partially reduced | very low levels | very low levels | lower levels | autophagy could be realized |  | 
2 | daclizumab: anti-IL-2 receptor monoclonal antibody (antibody, chains of the INN, looked up, V domains shown) VH: QVQLVQSGAEVKKPGSSVKVSCKASGYTFTSYRMHWVRQAPGQGLEWIGYINPSTGYTEYNQKFKDKATITADESTNTAYMELSSLRSEDTAVYYCARGGGVFDYWGQGTLVTVSS VL: DIQMTQSPSTLSASVGDRVTITCSASSSISYMHWYQQKPGKAPKLLIYTTSNLASGVPARFSGSGSGTEFTLTISSLQPDDFATYYCHQRSTYPLTFGQGTKVEVK | not effective |  |  |  |  |  |  |  |  |  |  | higher degree | further reduced
